Experiment [1] relates to influenza A virus (A/PR/8/34). Description: MDCK cytopathic effect (CPE) cell protection assay, ATP detection. The experiment is classed as cell-based. (Damage to the host cells serves as the signal in cytopathic effect assays.)
The subject of experiment [2] is influenza A virus (A/PR/8/34). Description: microbe, parasite or virus in culture. The experiment is classed as cell-based.
Setting [3] is: Influenza A virus, PR/8, MDCK, 72 h, Table 1, MDCK cells, A/PR/8/34, 72 hours, 50% cell protection, mean all, class symbol, read-out: MDCK IC50.
[4] abbreviates: Influenza A virus, PR/8, Table 1, mean all, class symbol, read-out: bDNA EC99.
[5] abbreviates: Influenza A virus, PR/8, Table 1, viral RNA 50% of control wells, mean all, class symbol, read-out: bDNA EC50.
Where [6] appears, read: Table 1, mean all, class symbol.
Where [7] appears, read: Table 1, MDCK cells, A/PR/8/34, 72 hours, 50% cell protection, mean all, class symbol, read-out: MDCK IC50.
Where [8] appears, read: Table 1, viral RNA 50% of control wells, mean all, class symbol, read-out: bDNA EC50.

Molecules are shown by their SMILES. Where two headings read alike, the source gives them in different places. Where only a bound is given, the exact number is not on record here.

From patent publication US10875855B2 (priority 2011, dated 2020) come the findings set out here.

In general, IC50 refers to the midpoint of a concentration-inhibition curve. By EC99 is commonly meant the concentration at which the effect reaches the 99% level. The EC50 is the concentration at which the effect is half-maximal. As for `O=C(O)CC(Nc1nc(-c2c[nH]c3ncc(F)cc23)ncc1F)C12CC3CC(CC(C3)C1)C2` (racemic) [Compound 86, (+/−)-3-(1-Adamantyl)-3-[[5-fluoro-2-(5-fluoro-1H-pyrrolo[2,3-b]pyridin-3-yl)pyrimidin-4-yl]amino]propionic acid], the IC50 in experiment [1] (setting [3]) was < 300 nM. For the same compound, the EC99 in experiment [2] (setting [4]) was in the range of 0.3 to 3.3 µM. In experiment [2] (setting [5]), the 50% effective concentration (EC50) was < 300 nM.

Regarding `O=C(O)CC(Nc1nc(-c2c[nH]c3ncc(F)cc23)ncc1F)C1(C(F)(F)F)CC1` (racemic) [Compound 93, (+/−)-3-((5-Fluoro-2-(5-fluoro-1H-pyrrolo[2,3-b]pyridin-3-yl)pyrimidin-4-yl)amino)-3-(1-(trifluoromethyl)cyclopropyl)propanoic acid], the IC50 in experiment [1] (setting [3]) fell in the range of 300 to 3300 nM. Further, the EC99 in experiment [2] (setting [4]) is > 3.3 µM. Further, in experiment [2] (setting [5]), the half-maximal effective concentration (EC50) lay in the range of 300 to 3300 nM.

Regarding `O=C(O)CC(Nc1nc(-c2c[nH]c3ncc(Cl)cc23)ncc1F)C12CC3CC(CC(C3)C1)C2` (racemic) [Compound 94, (+/−)-3-(1-Adamantyl)-3-[[2-(5-chloro-1H-pyrrolo[2,3-b]pyridin-3-yl)-5-fluoro-pyrimidin-4-yl]amino]propanoic acid], the concentration for half-maximal inhibition (IC50) in experiment [1] (setting [3]) was < 300 nM. In addition, the concentration for an effect of 99% (EC99) in experiment [2] (setting [4]) was < 0.3 µM. The concentration for a half-maximal effect (EC50) in experiment [2] (setting [5]) was < 300 nM.

Consider `O=C(O)CC(Nc1nc(-c2c[nH]c3ncc(F)cc23)ncc1F)C12CCC(CC1)C2` (racemic) [Compound 95, (+/−)-3-(Bicyclo[2.2.1]heptan-1-yl)-3-(5-fluoro-2-(5-fluoro-1H-pyrrolo[2,3-b]pyridin-3-yl)pyrimidin-4-ylamino)propanoic acid], for which the IC50 in experiment [1] (setting [3]) was < 300 nM. For the same compound, in experiment [2] (setting [4]), the concentration for an effect of 99% (EC99) lay in the range of 0.3 to 3.3 µM. The EC50 in experiment [2] (setting [5]) is < 300 nM.

For `CC(C)(C)C(Nc1nc(-c2c[nH]c3ncc(F)cc23)ncc1F)C1CC1C(=O)O` (single isomer, unassigned) [Compound 51, 2-(1-((5-fluoro-2-(5-fluoro-1H-pyrrolo[2,3-b]pyridin-3-yl)pyrimidin-4-yl)amino)-2,2-dimethylpropyl)cyclopropanecarboxylic acid], in experiment [1] (setting [3]), the concentration for half-maximal inhibition (IC50) is < 300 nM. Further, the EC50 in experiment [2] (setting [5]) was < 300 nM. For the same compound, in experiment [2] (setting [6]), the “bDNA EC99 (uM)” value is recorded as “C (EC99 (mean all)>3.3 μM)”.

For `CC(C)(C)C(Nc1nc(-c2c[nH]c3ncc(F)cc23)ncc1F)C1CC1C(=O)O` (single isomer, unassigned) [Compound 52, 2-(1-((5-fluoro-2-(5-fluoro-1H-pyrrolo[2,3-b]pyridin-3-yl)pyrimidin-4-yl)amino)-2,2-dimethylpropyl)cyclopropanecarboxylic acid], the IC50 in experiment [1] (setting [7]) is < 300 nM. In addition, the “bDNA EC99 (uM)” value in experiment [2] (setting [6]) was “B (0.3 μM≤EC99 (mean all)≤3.3 μM)”. The EC50 in experiment [2] (setting [8]) is < 300 nM.

For `CC(C)(C)[C@H](CC(=O)O)Nc1nc(-c2c[nH]c3ncc(Cl)cc23)ncc1F` [Compound 3, (S)-3-((2-(5-chloro-1H-pyrrolo[2,3-b]pyridin-3-yl)-5-fluoropyrimidin-4-yl)amino)-4,4-dimethylpentanoic acid], in experiment [1] (setting [3]), the IC50 lay within 300 to 3300 nM. In addition, the 99% effect concentration (EC99) in experiment [2] (setting [4]) is > 3.3 µM. For the same compound, the EC50 in experiment [2] (setting [5]) lay in the range of 300 to 3300 nM.

Take `CC(C)(C)[C@H](CC(=O)O)Nc1nc(-c2c[nH]c3ncc(F)cc23)ncc1F` [Compound 4, (S)-3-((5-fluoro-2-(5-fluoro-1H-pyrrolo[2,3-b]pyridin-3-yl)pyrimidin-4-yl)amino)-4,4-dimethylpentanoic acid]: in experiment [1] (setting [3]), the 50% inhibitory concentration (IC50) was > 3300 nM. Moreover, the EC99 in experiment [2] (setting [4]) is > 3.3 µM. The EC50 in experiment [2] (setting [5]) is > 3300 nM.

On to `CC(C)(C)[C@@H](CC(=O)O)Nc1nc(-c2n[nH]c3ncc(F)cc23)ncc1F` [Compound 5, (R)-3-((5-fluoro-2-(5-fluoro-1H-pyrazolo[3,4-b]pyridin-3-yl)pyrimidin-4-yl)amino)-4,4-dimethylpentanoic acid], for which the IC50 in experiment [1] (setting [3]) was < 300 nM. Also, the 99% effect concentration (EC99) in experiment [2] (setting [4]) was < 0.3 µM. Also, the EC50 in experiment [2] (setting [5]) is < 300 nM.

Turning to `CC(C)(C)[C@@H](CC(=O)O)Nc1nc(-c2n[nH]c3ncc(F)cc23)c(F)cc1F` [Compound 6, (R)-3-((3,5-difluoro-6-(5-fluoro-1H-pyrazolo[3,4-b]pyridin-3-yl)pyridin-2-yl)amino)-4,4-dimethylpentanoic acid], the 50% inhibitory concentration (IC50) in experiment [1] (setting [3]) was < 300 nM; in experiment [1] (Influenza A virus, PR/8, MDCK, exemplary data, MDCK cell protection, read-out: IC50) it was 4 nM. In addition, the EC99 was < 0.3 µM in experiment [2] (setting [4]) and 0.082 µM in experiment [2] (exemplary data, bDNA). Moreover, the EC50 in experiment [2] (setting [5]) is < 300 nM; in experiment [2] (Influenza A virus, PR/8, exemplary data, bDNA, read-out: EC50), 15 nM.

Regarding `CC(C)(C)[C@@H](CC(=O)O)Nc1nc(-c2c[nH]c3ncc(F)cc23)c(C#N)cc1F` [Compound 7, (R)-3-(5-cyano-3-fluoro-6-(5-fluoro-1H-pyrrolo[2,3-b]pyridin-3-yl)pyridin-2-ylamino)-4,4-dimethylpentanoic acid], the half-maximal inhibitory concentration (IC50) in experiment [1] (setting [3]) was < 300 nM. Further, in experiment [2] (setting [4]), the EC99 is < 0.3 µM. In addition, the EC50 in experiment [2] (setting [5]) is < 300 nM.

With `CC1([C@@H](CC(=O)O)Nc2nc(-c3c[nH]c4ncc(F)cc34)c(C#N)cc2F)CCCC1` [Compound 8, (R)-3-(5-cyano-3-fluoro-6-(5-fluoro-1H-pyrrolo[2,3-b]pyridin-3-yl)pyridin-2-ylamino)-3-(1-methylcyclopentyl)propanoic acid], the half-inhibitory concentration (IC50) in experiment [1] (setting [7]) is < 300 nM. Besides, in experiment [2] (setting [8]), the concentration giving a half-maximal response (EC50) was < 300 nM.

Take `CC(C)(C)[C@@H](CS(=O)(=O)O)Nc1nc(-c2c[nH]c3ncc(Cl)cc23)ncc1F` [Compound 10, (S)-2-((2-(5-chloro-1H-pyrrolo[2,3-b]pyridin-3-yl)-5-fluoropyrimidin-4-yl)amino)-3,3-dimethylbutane-1-sulfonic acid]: the half-maximal inhibitory concentration (IC50) in experiment [1] (setting [3]) is < 300 nM. Besides, in experiment [2] (setting [4]), the EC99 was < 0.3 µM. Also, the EC50 in experiment [2] (setting [5]) was < 300 nM.

As to `CC(C)(C)[C@@H](CS(=O)(=O)O)Nc1nc(-c2c[nH]c3ncc(F)cc23)ncc1F` [Compound 11, (S)-2-(5-fluoro-2-(5-fluoro-1H-pyrrolo[2,3-b]pyridin-3-yl)pyrimidin-4-ylamino)-3,3-dimethylbutane-1-sulfonic acid], the half-inhibitory concentration (IC50) in experiment [1] (setting [3]) is < 300 nM. Moreover, the EC99 in experiment [2] (setting [4]) was < 0.3 µM. Also, the half-maximal effective concentration (EC50) in experiment [2] (setting [5]) was < 300 nM.

For the compound `CC1(C(CC(=O)O)Nc2nc(-c3c[nH]c4ncc(F)cc34)c(C#N)cc2F)CCCC1` (centres unmarked) [Compound 13], the IC50 in experiment [1] (setting [3]) was < 300 nM. The concentration for an effect of 99% (EC99) in experiment [2] (setting [4]) is < 0.3 µM. Further, in experiment [2] (setting [5]), the EC50 is < 300 nM.

On to `CC1([C@@H](CC(=O)O)Nc2nc(-c3c[nH]c4ncc(F)cc34)ncc2F)CCCC1` [Compound 14], for which the concentration for half-maximal inhibition (IC50) in experiment [1] (setting [3]) was < 300 nM. For the same compound, the EC99 in experiment [2] (setting [4]) was < 0.3 µM. In addition, the EC50 in experiment [2] (setting [5]) is < 300 nM.

Take `CC1([C@H](CC(=O)O)Nc2nc(-c3c[nH]c4ncc(F)cc34)ncc2F)CCCC1` [Compound 15]: in experiment [1] (setting [3]), the IC50 was in the range of 300 to 3300 nM. In addition, the EC99 in experiment [2] (setting [4]) was > 3.3 µM. The half-maximal effective concentration (EC50) in experiment [2] (setting [5]) fell in the range of 300 to 3300 nM.

With `CCC(C)(C)C(CC(=O)O)Nc1nc(-c2c[nH]c3ncc(F)cc23)ncc1F` (centres unmarked) [Compound 16, 3-((5-fluoro-2-(5-fluoro-1H-pyrrolo[2,3-b]pyridin-3-yl)pyrimidin-4-yl)amino)-4,4-dimethylhexanoic acid], the half-maximal inhibitory concentration (IC50) in experiment [1] (setting [3]) is < 300 nM. Besides, in experiment [2] (setting [5]), the EC50 is < 300 nM. In addition, the “bDNA EC99 (uM)” value in experiment [2] (setting [6]) is “A (EC99 (mean all)<0.3 μM)”.

Consider `CCC(C)(C)C(CC(=O)O)Nc1nc(-c2c[nH]c3ncc(F)cc23)ncc1F` (centres unmarked) [Compound 17, 3-((5-fluoro-2-(5-fluoro-1H-pyrrolo[2,3-b]pyridin-3-yl)pyrimidin-4-yl)amino)-4,4-dimethylhexanoic acid], for which, in experiment [1] (setting [7]), the IC50 was in the range of 300 to 3300 nM. In experiment [2] (setting [6]), the “bDNA EC99 (uM)” value is “C (EC99 (mean all)>3.3 μM)”. Besides, the EC50 in experiment [2] (setting [8]) was in the range of 300 to 3300 nM.

In the case of `CCC(C)(C)C(CC(=O)O)Nc1nc(-c2c[nH]c3ncc(F)cc23)c(C#N)cc1F` (centres unmarked) [Compound 18, 3-[[5-cyano-3-fluoro-6-(5-fluoro-1H-pyrrolo[2,3-b]pyridin-3-yl)-2-pyridyl]amino]-4,4-dimethyl-hexanoic acid], the 50% inhibitory concentration (IC50) in experiment [1] (setting [3]) was < 300 nM. Further, the 99% effect concentration (EC99) in experiment [2] (setting [4]) is < 0.3 µM. Further, the EC50 in experiment [2] (setting [5]) is < 300 nM.

On to `CNS(=O)(=O)C[C@@H](Nc1nc(-c2c[nH]c3ncc(F)cc23)ncc1F)C(C)(C)C` [Compound 19, (S)-2-(5-fluoro-2-(5-fluoro-1H-pyrrolo[2,3-b]pyridin-3-yl)pyrimidin-4ylamino)-N,3,3-trimethylbutane-1-sulfonamide], for which the 50% inhibitory concentration (IC50) in experiment [1] (setting [3]) is < 300 nM. For the same compound, in experiment [2] (setting [4]), the concentration for an effect of 99% (EC99) was < 0.3 µM. The EC50 in experiment [2] (setting [5]) is < 300 nM.

As to `CC(C)(C)[C@@H](CCC(=O)O)Nc1nc(-c2c[nH]c3ncc(F)cc23)ncc1F` [Compound 20, (R)-4-((5-fluoro-2-(5-fluoro-1H-pyrrolo[2,3-b]pyridin-3-yl)pyrimidin-4-yl)amino)-5,5-dimethylhexanoic acid], the IC50 in experiment [1] (setting [3]) is < 300 nM. Further, the 99% effect concentration (EC99) in experiment [2] (setting [4]) was < 0.3 µM. Also, the EC50 in experiment [2] (setting [5]) is < 300 nM.

For the compound `CC(C)(C)[C@@H](CS(=O)(=O)NC1CC1)Nc1nc(-c2c[nH]c3ncc(F)cc23)ncc1F` [Compound 21, (S)—N-Cyclopropyl-2-(5-fluoro-2-(5-fluoro-1H-pyrrolo[2,3-b]pyridin-3-yl)pyrimidin-4-ylamino)-3,3-dimethylbutane-1-sulfonamide], the concentration for half-maximal inhibition (IC50) in experiment [1] (setting [3]) is < 300 nM. In addition, the 99% effect concentration (EC99) in experiment [2] (setting [4]) is < 0.3 µM. Also, the EC50 in experiment [2] (setting [5]) was < 300 nM.

Take `CC(C)(C)[C@@H](CS(N)(=O)=O)Nc1nc(-c2c[nH]c3ncc(F)cc23)ncc1F` [Compound 22, (S)-2-(5-fluoro-2-(5-fluoro-1H-pyrrolo[2,3-b]pyridin-3-yl)pyrimidin-4-ylamino)-3,3-dimethylbutane-1-sulfonamide]: the 50% inhibitory concentration (IC50) in experiment [1] (setting [3]) is < 300 nM. Moreover, the EC99 in experiment [2] (setting [4]) was in the range of 0.3 to 3.3 µM. Also, the half-maximal effective concentration (EC50) in experiment [2] (setting [5]) was < 300 nM.
